The results in this text go back to US20200000816A1, “COMPOUND HAVING SOMATOSTATIN RECEPTOR AGONISTIC ACTIVITY AND PHARMACEUTICAL USE THEREOF” (ONO PHARMACEUTICAL CO., LTD., priority 2017, published 2020).

For orientation: IC50 means the concentration that gives 50% inhibition. By EC50 is commonly meant the midpoint of the concentration-response curve. A higher EC50 goes with weaker potency. Usually inhibition in vivo stands for the percentage by which the read-out fell short of the control. A higher inhibition in vivo goes with a strong effect.

The target in one series is T1, hERG K+ channel (Homo sapiens, UniProt Q12809).
T1 construct: expressed in transfected cells; host or cells: CHO-K1
T1 sequence (Q12809 whole entry): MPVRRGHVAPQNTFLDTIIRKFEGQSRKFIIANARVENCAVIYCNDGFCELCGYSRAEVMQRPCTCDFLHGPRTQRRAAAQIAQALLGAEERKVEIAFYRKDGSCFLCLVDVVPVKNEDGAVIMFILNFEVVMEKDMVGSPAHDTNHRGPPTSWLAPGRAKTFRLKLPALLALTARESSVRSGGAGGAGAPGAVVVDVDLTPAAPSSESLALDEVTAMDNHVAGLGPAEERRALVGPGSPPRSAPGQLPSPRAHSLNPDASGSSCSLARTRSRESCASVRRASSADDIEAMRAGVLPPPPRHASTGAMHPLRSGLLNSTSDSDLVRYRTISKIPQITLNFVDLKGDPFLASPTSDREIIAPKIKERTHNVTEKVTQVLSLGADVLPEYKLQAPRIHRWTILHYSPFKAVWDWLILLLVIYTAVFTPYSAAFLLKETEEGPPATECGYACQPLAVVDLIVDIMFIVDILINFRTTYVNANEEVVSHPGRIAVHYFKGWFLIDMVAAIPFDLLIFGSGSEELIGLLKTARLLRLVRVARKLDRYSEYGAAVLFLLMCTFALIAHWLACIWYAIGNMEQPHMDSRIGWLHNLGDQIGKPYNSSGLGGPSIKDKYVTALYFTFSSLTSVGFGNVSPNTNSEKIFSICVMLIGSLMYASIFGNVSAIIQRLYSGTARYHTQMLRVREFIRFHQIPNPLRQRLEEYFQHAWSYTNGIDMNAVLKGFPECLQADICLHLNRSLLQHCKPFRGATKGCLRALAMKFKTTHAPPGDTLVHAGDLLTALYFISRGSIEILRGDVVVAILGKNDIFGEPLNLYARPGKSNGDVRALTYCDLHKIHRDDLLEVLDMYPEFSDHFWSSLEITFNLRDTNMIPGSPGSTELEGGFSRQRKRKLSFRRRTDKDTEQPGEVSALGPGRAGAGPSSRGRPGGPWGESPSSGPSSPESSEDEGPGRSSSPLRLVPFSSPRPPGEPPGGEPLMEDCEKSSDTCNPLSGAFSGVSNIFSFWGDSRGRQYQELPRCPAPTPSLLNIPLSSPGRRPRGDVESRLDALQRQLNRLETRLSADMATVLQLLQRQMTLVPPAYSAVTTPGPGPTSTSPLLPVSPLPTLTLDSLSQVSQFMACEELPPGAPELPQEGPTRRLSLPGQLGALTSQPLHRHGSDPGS
Nature of the series: Evaluation of hERG K+ channel inhibitory activity using cells expressing human ERG (automated patch-clamp, CHO-K1). The following applies: CHO-K1 cells with human ERG gene, tested at 1, 3 and 10 μmol/L, 5-minute incubation. The series is classed as cell-based. As for the experimental part:
Evaluation of hERG K^+ Channel Inhibitory Activity Using Cells Expressing Human ERG
CHO-K1 cells having the human ERG gene (ether-a-go-go related gene) introduced therein were subcultured in an F-12 medium [F-12 Nutrient Mixture (HAM)] containing 10% inactivated foetal bovine serum, 100 IU/mL penicillin-100 μg/mL streptomycin and 200 μg/mL geneticin.
Patch-clamp was performed in a full-automated manner using CHO-K1 cells having the human ERG gene introduced therein and having a perforated patch formed therein with amphotericin B. For the experiment, a 384-well PatchPlate™ was used and the cell suspension and compounds were added thereto. The IKr current was measured with command voltages of holding potential of −80 mV, depolarization potential of +40 mV (2 seconds) and repolarization potential of −50 mV (2 seconds). The stimulation frequency was twice (single pulse stimulations) before and after the treatment with a drug (the concentrations of a compound for evaluation were 1, 3 and 10 μmol/L, a 5-minute incubation), and the Ikr maximum current was measured. The inhibition (%) on the CHO-K1 cells having the human ERG gene introduced therein was determined by correcting the variation in the maximum tail current before and after addition of the test substance by the variation thereof in the group treated with a medium (inhibition (%)=(1-variation in current before and after addition of a test substance/variation in current before and after addition of a medium)×100). The 50% inhibitory concentration (IC50 value) was calculated from a line connecting two points on both sides of the inhibition of 50%.

Series [1] concerns Chinese hamster lung-derived CHL/IU cells. The series can be described thus: Evaluation of phospholipidosis induction ability using cultured cell line (NBD-PE incorporation). The series is classed as cell-based. To be noted: 24 hours, positive = 25% or more of amiodarone maximum reaction at cell viability 50% or more; for phospholipidosis induction ability (judgement): 6.25-100 μmol/L. As for the experimental part:
Chinese hamster lung-derived CHL/IU cells were suspended in an MEM-E culture solution containing non-essential amino acids, sodium pyruvate and 10% foetal bovine serum and seeded in a 96-well plate. The cells cultured overnight in an incubator (5% carbon dioxide, 95% air, 37° C.) were further cultured for 24 hours after replacing the culture solution with a culture solution containing 6.25, 12.5, 25, 50 or 100 μmol/L of a test substance and NBD-PE (fluorescence label N-(7-nitrobenz-2-oxa-1,3-diazol-4-yl)-1,2-dihexadecanoyl-sn-glycero-3-phosphoethanolamine triethylammonium salt) obtained from Molecular Probes. The phospholipidosis induction ability was evaluated by measuring the concentration of NBD-PE incorporated into the cells. Specifically, the cells were washed twice with PBS and then measured for the fluorescence of NBD-PE (excitation wavelength: 485 nm, fluorescence wavelength: 535 nm) incorporated in the cells on a SpectraMax plate reader available from Molecular Devices, LLC. for evaluation. After measurement of the fluorescence of NBD-PE, the cell viability was evaluated with Premix WST-1 Cell Proliferation Assay System available from TaKaRa Bio Inc. The phospholipidosis induction ability was judged to be positive when, at a dose that provided a cell viability of 50% or more, the reaction (the concentration of NBD-PE incorporated after administration of a test substance) was 25% or more of the maximum reaction of a positive control amiodarone (the concentration of NBD-PE incorporated into the cells after administration of amiodarone was regarded as 100%).

The target of another series is T2, human SSTR2 (Homo sapiens, UniProt P30874).
T2 construct: Myc; expressed in transfected cells
T2 sequence (P30874 whole entry): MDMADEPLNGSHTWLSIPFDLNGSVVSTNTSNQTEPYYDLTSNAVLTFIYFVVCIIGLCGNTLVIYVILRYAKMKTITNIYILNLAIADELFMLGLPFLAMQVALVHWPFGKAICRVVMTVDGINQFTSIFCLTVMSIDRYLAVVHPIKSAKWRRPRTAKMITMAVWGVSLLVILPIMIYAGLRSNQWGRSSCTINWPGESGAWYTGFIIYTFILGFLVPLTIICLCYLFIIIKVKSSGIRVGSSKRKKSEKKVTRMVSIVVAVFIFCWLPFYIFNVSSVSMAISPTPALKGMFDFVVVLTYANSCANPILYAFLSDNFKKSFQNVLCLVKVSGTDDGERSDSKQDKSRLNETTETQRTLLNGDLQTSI
Nature of the series: Evaluation of SSTR2 agonistic activity using cells expressing human SSTR2 (suppression of forskolin-stimulated cAMP production, SSTR2-CHO-K1). The class given is cell-based. To be noted: suppression of cAMP production by forskolin stimulation, 1000 nmol/L octreotide = 100%.

The test system of another series is GH secretion. The series can be described thus: Evaluation of suppression of growth hormone (GH) secretion using rats (GHRH-induced). The series is classed as in vivo. The following applies: Rattus norvegicus, 5 min, oral, dosage of 1 mg/kg, GHRH given 8 hours after dosing, blood GH 5 minutes after GHRH. As for the experimental part:
A medium (distilled water (Otsuka distilled water, Otsuka Pharmaceutical Factory, Inc.)) or a test compound dissolved in the medium was orally administered to rats (7-week old male Crl:CD(SD) IGS rats (Charles River Laboratories Japan, Inc.)) and after 7 hours and 57 minutes, the animals were administered with 50 mg/kg of pentobarbital sodium (Somnopentyl, Kyoritsu Seiyaku Corporation) via the tail vein for anaesthesia. Three minutes after administration of pentobarbital sodium, the rats were administered with 0.01 mg/kg of growth hormone-releasing hormone (GHRH, Bachem) via the tail vein to induce GH secretion. In order to measure the blood GH concentration, 0.2 mL of blood was collected through the jugular vein at 5 minutes after administration of GHRH. The collected blood was centrifuged at 4° C., 13,000×g for 5 minutes to obtain plasma. The blood GH concentration was measured by using Rat/Mouse Growth Hormone ELISA (Millipore) following the instruction of the kit. The percentage (%) of suppression of GH secretion was determined by using the obtained blood GH concentration and the equation {[suppression (%) of GH secretion]=([blood GH concentration of the group administered with the medium]−[blood GH concentration of the group administered with a test compound])/[blood GH concentration of the group administered with the medium]×100}. In the equation, the group administered with the medium represents the group of animals administered with the medium and the group administered with a test compound represents the group of animals administered with a test compound dissolved in the medium.

Turning to `Cn1cc(-c2ncc(-c3cc(F)cc(F)c3)c(N3CC[C@@H](N)[C@@H](O)C3)c2-c2nc3cc(F)c(F)cc3[nH]2)cn1` [Example 1(2), (3S,4R)-4-amino-1-[3-(5,6-difluoro-1H-benzimidazol-2-yl)-5-(3,5-difluorophenyl)-2-(1-methyl-1H-pyrazol-4-yl)-4-pyridinyl]-3-piperidinol], the IC50 at hERG K+ channel is at least 10000 nM. Moreover, in series [1], the “phospholipidosis induction ability (judgement)” value is listed as “negative”. Moreover, the EC50 on human SSTR2 was 0.032 nM.
On hERG K+ channel, `COC(=O)c1cc(F)cc2nc(-c3c(C)ncc(-c4cc(F)cc(Cl)c4)c3N3CC[C@@H](N)[C@@H](O)C3)[nH]c12` [Example 2(3), Methyl 2-{4-[(3S,4R)-4-amino-3-hydroxy-1-piperidinyl]-5-(3-chloro-5-fluorophenyl)-2-methyl-3-pyridinyl}-5-fluoro-1H-benzimidazole-7-carboxylate] returned an IC50 of 5200 nM. The inhibition in vivo at 1 mg/kg with GH secretion was 76%. In addition, the “concentration at which judged to be positive in phospholipidosis induction ability” value (shortened to “concentration at which judged”) in series [1] came to 12.5 µM. This compound registered an EC50 at human SSTR2 of 0.019 nM.
The compound `COC(=O)c1cc(F)cc2nc(-c3c(C)ncc(-c4cc(F)ccc4F)c3N3CC[C@@H](N)[C@@H](O)C3)[nH]c12` [Example 2(12), Methyl 2-{4-[(3S,4R)-4-amino-3-hydroxy-1-piperidinyl]-5-(2,5-difluorophenyl)-2-methyl-3-pyridinyl}-5-fluoro-1H-benzimidazole-7-carboxylate] displayed an IC50 against hERG K+ channel of 9400 nM. For the same compound, at human SSTR2, a half-maximal response (EC50) required 0.016 nM.
For `Cc1ncc(-c2cc(F)cc(F)c2)c(N2CC[C@@H](N)[C@@H](O)C2)c1-c1nc2cc(F)c(F)c(F)c2[nH]1` [Example 2(13), (3S,4R)-4-amino-1-[5-(3,5-difluorophenyl)-2-methyl-3-(5,6,7-trifluoro-1H-benzimidazol-2-yl)-4-pyridinyl]-3-piperidinol], the IC50 on hERG K+ channel is at least 10000 nM. The compound further yielded an EC50 on human SSTR2 of 0.017 nM.
For the compound `CCN[C@@H]1CCN(c2c(-c3cc(F)cc(F)c3)cnc(C)c2-c2nc3cc(F)c(OC)cc3[nH]2)C[C@@H]1O` [Example 3(4), (3S,4R)-1-[5-(3,5-difluorophenyl)-3-(5-fluoro-6-methoxy-1H-benzimidazol-2-yl)-2-methyl-4-pyridinyl]-4-(ethylamino)-3-piperidinol], the half-maximal inhibitory concentration (IC50) against hERG K+ channel was at least 10000 nM. In the series on GH secretion, testing at 1 mg/kg gave an inhibition in vivo of 71%. Also, the EC50 at human SSTR2 was 0.056 nM.
The compound `Cc1ncc(-c2cc(F)cc(Cl)c2)c(N2CC[C@@H](NC3COC3)[C@@H](O)C2)c1-c1nc2cc(F)c(F)cc2[nH]1` [Example 3(5), (3S,4R)-1-[5-(3-chloro-5-fluorophenyl)-3-(5,6-difluoro-1H-benzimidazol-2-yl)-2-methyl-4-pyridinyl]-4-(3-oxetanylamino)-3-piperidinol] yielded an IC50 against hERG K+ channel of 9600 nM. In the series on GH secretion, this compound showed an inhibition in vivo at 1 mg/kg of 83%. For the same compound, in series [1], the “phospholipidosis induction ability (judgement)” value is reported as “negative”. Also, the EC50 on human SSTR2 was found to be 0.023 nM.
In turn, `CCN[C@@H]1CCN(c2c(-c3cc(F)cc(F)c3)cnc(C)c2-c2nc3cc(F)c(F)c(F)c3[nH]2)C[C@@H]1O` [Example 3(15), (3S,4R)-1-[5-(3,5-difluorophenyl)-2-methyl-3-(5,6,7-trifluoro-1H-benzimidazol-2-yl)-4-pyridinyl]-4-(ethylamino)-3-piperidinol] came in with an IC50 against hERG K+ channel of 5800 nM. In the series on GH secretion, this compound returned an inhibition in vivo at 1 mg/kg of 66%. This compound returned an EC50 at human SSTR2 of 0.47 nM.
On to `COc1ccc2nc(-c3c(C)ncc(-c4cc(F)cc(Cl)c4)c3N3CC[C@@H](NC4COC4)[C@@H](O)C3)[nH]c2c1` [Example 3, (3S,4R)-1-[5-(3-chloro-5-fluorophenyl)-3-(6-methoxy-1H-benzimidazol-2-yl)-2-methyl-4-pyridinyl]-4-(3-oxetanylamino)-3-piperidinol], for which the IC50 against hERG K+ channel was at least 10000 nM. Further, the “phospholipidosis induction ability (judgement)” value in series [1] was “negative”. This compound also displayed an EC50 at human SSTR2 of 0.027 nM.
At hERG K+ channel, `N[C@@H]1CCN(c2c(-c3cc(F)cc(F)c3)cncc2-c2nc3ccccc3[nH]2)C[C@@H]1O` [Example 4(4), (3S,4R)-4-amino-1-[3-(1H-benzimidazol-2-yl)-5-(3,5-difluorophenyl)-4-pyridinyl]-3-piperidinol] showed a half-maximal inhibitory concentration (IC50) of 6700 nM. In series [1], the “concentration at which judged” value came out at 25 µM. At human SSTR2, this compound displayed an EC50 of 0.0093 nM.
Take `COc1ccc2nc(-c3cncc(-c4cc(F)ccc4F)c3N3CC[C@@H](N)[C@@H](O)C3)[nH]c2c1` [Example 4(15), (3S,4R)-4-amino-1-[3-(2,5-difluorophenyl)-5-(6-methoxy-1H-benzimidazol-2-yl)-4-pyridinyl]-3-piperidinol]: inhibition against hERG K+ channel was half-maximal at 9100 nM (IC50). The “concentration at which judged” value in series [1] came out at 25 µM. Moreover, the EC50 on human SSTR2 came to 0.012 nM.
As for `N[C@@H]1CCN(c2c(-c3cc(F)cc(F)c3)cncc2-c2nc3cc(F)c(F)cc3[nH]2)C[C@@H]1O` [Example 4, (3S,4R)-4-amino-1-[3-(5,6-difluoro-1H-benzimidazol-2-yl)-5-(3,5-difluorophenyl)-4-pyridinyl]-3-piperidinol], the concentration for half-maximal inhibition (IC50) against hERG K+ channel turned out to be 6900 nM. Further, the “concentration at which judged” value in series [1] is at least 12.5 µM. On human SSTR2, this compound yielded an EC50 of 0.015 nM.
Compound `O[C@H]1CN(c2c(-c3cc(F)cc(Cl)c3)cncc2-c2nc3cc(F)c(F)cc3[nH]2)CC[C@H]1NCCC(F)(F)F` [Example 5(3), (3S,4R)-1-[3-(3-chloro-5-fluorophenyl)-5-(5,6-difluoro-1H-benzimidazol-2-yl)-4-pyridinyl]-4-[(3,3,3-trifluoropropyl)amino]-3-piperidinol] yielded an IC50 against hERG K+ channel of at least 10000 nM. Moreover, the “phospholipidosis induction ability (judgement)” value in series [1] is listed as “negative”. Further, a half-maximal response on human SSTR2 (EC50) required 0.28 nM.
The matching figures for `COc1cc(F)cc(-c2cncc(-c3nc4cc(F)c(F)cc4[nH]3)c2N2CC[C@@H](NCCC(F)(F)F)[C@@H](O)C2)c1` [Example 5(5), (3S,4R)-1-[3-(5,6-difluoro-1H-benzimidazol-2-yl)-5-(3-fluoro-5-methoxyphenyl)-4-pyridinyl]-4-[(3,3,3-trifluoropropyl)amino]-3-piperidinol]: at least 10000 nM, “negative” and 0.42 nM.
As to `COC(=O)c1cc(F)cc2nc(-c3c(N4CCOCC4)ncc(-c4cc(F)cc(F)c4)c3N3CC[C@@H](N)[C@@H](O)C3)[nH]c12` [Example 6, Methyl 2-{4-[(3S,4R)-4-amino-3-hydroxy-1-piperidinyl]-5-(3,5-difluorophenyl)-2-(4-morpholinyl)-3-pyridinyl}-5-fluoro-1H-benzimidazole-7-carboxylate], the IC50 against hERG K+ channel amounted to 4400 nM. Also, the “concentration at which judged” value in series [1] is 50 µM. For the same compound, at human SSTR2, the EC50 was determined as 0.081 nM.
